# Test system: patients with advanced solid tumors
# Test: Phase 1 trial: adverse events (CTCAE), DLT and MTD
# Format: in vivo, human
# Conditions: Phase 1, 600 mg (N=64)
# Protocol: The phase 1 trial was a two-part, multicenter, open-label, nonrandomized study to evaluate the safety and preliminary efficacy of HA121-28.
# Safety, tolerability, and PK of HA121-28 was assessed in dose-escalation part. The single-patient accelerated titration was carried out at 25 mg and 50 mg; then, the dose escalation proceeded according to a “3 + 3” design in dose range of 100 to 800 mg. Escalation to a higher dose level was considered by the satisfactory review of safety results from the previous lower dose during the first cycle.
# The dose-expansion part aims to further access the safety and efficacy of HA121-28 at the selected doses based on data from the dose-escalation part. The RP2D was determined by investigators in view of a thorough review of safety, PK, and efficacy results.
# In phase 1 trial, during the dose-escalation part, patients first administered HA121-28 in a single ascending dose under the fasted state, then followed up for seven days. Then, patients received ascending doses of HA121-28 (q.d.) on a 21-day on and 7-day off treatment scheme for a 28-day cycle. For patients deemed beneficial from the treatment by investigators, treatment could remain until disease progression, or they discontinued from the study. In the dose-expansion part of phase 1, as well as phase 2, patients received HA121-28 (q.d.) at the selected doses on a 21-day on and 7-day off treatment scheme until disease progression, or they discontinued from the study.
# Treatment-emergent adverse events (TEAEs) were documented during the entire study period. The predefined adverse event of special interest (AESI) was ≥ grade 3 prolonged QT interval. Tumor imaging was performed using contrast-enhanced computed tomography or magnetic resonance imaging at screening, Day 28 of the first cycle, then approximately every eight weeks till the end of the study for phase 1; in phase 2, imaging was scheduled at screening, and every eight weeks during the first 40 weeks, followed by every 12 weeks for the rest of the study period. RECIST 1.1 was used by the independent review committee or investigators for assessment of tumor response. After the original assessment, a repeated assessment was required around four weeks later to confirm a complete or partial response.
# The primary endpoints of phase 1 were to investigate the MTD, dose-limiting toxicities, and the incidence and severity of TEAEs. Each TEAE was graded according to the Common Terminology Criteria for Adverse Events (CTCAE, version 5.0) and coded by Medical Dictionary for Regulatory Activities (MedDRA, version 21.0). The secondary endpoints included calculating PK parameters, assessing the ORR and DCR at the recommended dose by investigators as per RECIST 1.1. The exploratory endpoint was PFS.
# If grade 2 or higher toxicity related to the study drug occurs in Groups 1 and 2 (as determined by the investigator), dose escalation will proceed using a 3+3 design starting from that dose level. If no DLT is observed at the 800 mg/d dose level after dose escalation, a meeting of investigators will be convened to decide whether to proceed with further dose escalation based on the available PK data, safety, and tolerability information.
# 5. Definition of DLT and MTD
# The following events related to the study drug (including those that are definitely related, highly likely to be related, and possibly related):
# (1) Grade 4 hematologic toxicity or grade 3 neutropenia accompanied by a fever of 38.5℃ or higher, or grade 3 thrombocytopenia accompanied by severe bleeding.
# (2) Patients who discontinued the medication for more than 7 days due to unresolved toxicity reactions or who discontinued the medication more than twice due to toxicity […]
# (3) In the context of supportive treatment, diarrhea of grade 2 lasting more than 7 days, or grade 3 diarrhea lasting more than 3 days.
smiles,measurement,value
"COc1cc2c(Nc3ccc(Br)cc3F)ncnc2cc1OCCCCN(C)C.Cl.Cl [HA121-28, N-(4-bromo-2-fluorophenyl)-7-(4-(dimethylamino)butoxy)-6-methoxy quinazolin-4-amine dihydrochloride]",Serious TEAE: Cardiac tamponade,0 No. (%)
same,Serious TEAE: Coronary artery atherosclerosis,0 No. (%)
same,Serious TEAE: Death,0 No. (%)
same,Serious TEAE: Diarrhea,2 (3.1) No. (%)
same,Serious TEAE: Drug eruption,1 (1.6) No. (%)
same,Serious TEAE: Dyspnea,0 No. (%)
same,Serious TEAE: Embolism,0 No. (%)
same,Serious TEAE: Erythema multiforme,0 No. (%)
same,Serious TEAE: Headache,0 No. (%)
same,Serious TEAE: Hemoptysis,1 (1.6) No. (%)
same,Serious TEAE: Hydronephrosis,0 No. (%)
same,Serious TEAE: Hypertension,0 No. (%)
same,Serious TEAE: Hypoalbuminemia,1 (1.6) No. (%)
same,Serious TEAE: Intestinal obstruction,0 No. (%)
same,Serious TEAE: Intra-abdominal fluid collection,0 No. (%)
same,Serious TEAE: Intracranial tumor hemorrhage,0 No. (%)
same,Serious TEAE: Liver injury,1 (1.6) No. (%)
same,Serious TEAE: Lung adenocarcinoma,0 No. (%)
same,Serious TEAE: Malignant neoplasm progression,2 (3.1) No. (%)
same,Serious TEAE: Multiple organ dysfunction syndrome,0 No. (%)
same,Serious TEAE: Nausea,2 (3.1) No. (%)
same,Serious TEAE: Nephrolithiasis,0 No. (%)
same,Serious TEAE: Platelet counts decreased,1 (1.6) No. (%)
same,Serious TEAE: Pleural effusion,0 No. (%)
same,Serious TEAE: Pneumonia,0 No. (%)
same,Serious TEAE: Pneumonitis,0 No. (%)
same,Serious TEAE: Prolonged QT interval,1 (1.6) No. (%)
same,Serious TEAE: Pulmonary embolism,0 No. (%)
same,Serious TEAE: Pyrexia,0 No. (%)
same,Serious TEAE: Rash,3 (4.7) No. (%)
same,Serious TEAE: Rectal hemorrhage,0 No. (%)
same,Serious TEAE: Respiratory failure,0 No. (%)
same,Serious TEAE: Seizure,0 No. (%)
same,Serious TEAE: Septic shock,0 No. (%)
same,Serious TEAE: Sudden cardiac arrest,1 (1.6) No. (%)
same,Serious TEAE: Sudden death,1 (1.6) No. (%)
same,Serious TEAE: Upper respiratory tract infection,1 (1.6) No. (%)
same,Serious TEAE: Ventricular tachycardia,1 (1.6) No. (%)
same,Serious TEAE: Vomiting,2 (3.1) No. (%)
same,Serious TEAE: Weight loss,2 (3.1) No. (%)
same,Serious TRAE: ALT increased,1 (1.6) No. (%)
same,Serious TRAE: AST increased,1 (1.6) No. (%)
same,Serious TRAE: Abdominal Pain,0 No. (%)
same,Serious TRAE: Abdominal distension,0 No. (%)
same,Serious TRAE: Acute cholecystitis,0 No. (%)
same,Serious TRAE: Acute pancreatitis,0 No. (%)
same,Serious TRAE: Anal abscess,1 (1.6) No. (%)
same,Serious TRAE: Any,13 (20.3) No. (%)
same,Serious TRAE: Aortic intramural hematoma,0 No. (%)
same,Serious TRAE: Arrhythmia,0 No. (%)
same,Serious TRAE: Blood bilirubin increased,1 (1.6) No. (%)
same,Serious TRAE: Blood creatinine increased,1 (1.6) No. (%)
same,Serious TRAE: COVID-19,0 No. (%)
same,Serious TRAE: Cardiac tamponade,0 No. (%)
same,Serious TRAE: Coronary artery atherosclerosis,0 No. (%)
same,Serious TRAE: Death,0 No. (%)
same,Serious TRAE: Diarrhea,2 (3.1) No. (%)

# Reference: publication PMC11868595, “Safety, pharmacokinetics and efficacy of HA121-28 in patients with advanced solid tumors and RET fusion-positive non-small-cell lung cancer: a multicenter, open-label, single-arm phase 1/2 trial” (Signal Transduction and Targeted Therapy, 2025)
